For this data set the following is noted: formulations up to a concentration of 0.3 M STS; ocular route.

The structures appear in SMILES notation.

For the compound `O=S(O)(O)=S` [STS, sodium thiosulfate], the “adverse findings (local tolerance and toxicity)” value is given as “did not show adverse findings”.

(Values after patent US20230092648A1, “COMBINATION CONTAINING A DUOCARMYCIN DERIVATIVE-COMPRISING ANTIBODY-DRUG CONJUGATE AND THIOSULFATE” (BYONDIS B.V., priority 2020, published 2023).)
